# Measured values published in US6987114B1, “Antiviral pyrimidinedione derivatives and process for the preparation thereof” (Samjin Pharmaceutical Co., Ltd, priority 1999, dated 2006).
# Read-outs that look alike come from different tables or passages of the source.
# What was measured:
# HIV = test: microbe, parasite or virus in culture; assay type: cell-based
# Method in brief: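 MT-4 cells (2.5×10^5 cells/ml) infected with 1000 CCID50 HIV, added at once to compound dilutions, incubated 4 or 5 days at 37° C. Protection from virus-induced cytopathic effect read by MTT; cytotoxicity from MTT viability of mock-infected cells in parallel.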
# mock-infected MT-4 cells = test: Cytotoxicity based on viability of mock-infected host cells (MTT method); assay type: cell-based; conditions: mock-infected MT-4 cells, MTT method, 4 or 5 days at 37° C.
# Method in brief: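 Mock-infected MT-4 cells at 2.5×10^5 cells/ml were exposed to various concentrations of test compound, run in parallel with HIV-infected (1000 CCID50) cultures. After 4 or 5 days at 37° C., host-cell viability was read by MTT.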
# [1] = Human immunodeficiency virus 1, MT4, HIV-infected MT-4 cells, MTT method, 4 or 5 days at 37° C., read-out: ED50 (the source's name)
# [2] = Human immunodeficiency virus 1, MT4, read-out: ED50
Compound,melting point [°C],EC50 (HIV; [1]) [µg/mL],CD50 (mock-infected MT-4 cells) [µg/mL],EC50 (HIV; [2]) [µg/mL]
"CCc1c(Sc2cc(C)cc(C)c2)n(Cc2ccc(OC(F)(F)F)cc2)c(=O)[nH]c1=O [Example 31, 1-(4-Trifluoromethoxybenzyl)-5-ethyl-6-(3,5-dimethylphenyl)thio-2,4-pyrimidinedione]",138 to 140,0.017,4.86,–
"Cc1cc(C)cc(Sc2c(C(C)C)c(=O)[nH]c(=O)n2Cc2ccccn2)c1 [Example 110, 1-(Pyridin-2-ylmethyl)-5-isopropyl-6-(3,5-dimethylphenyl)thio-2,4-pyrimidinedione]",194 to 196,0.009,9.61,–
"CCc1c(C(=O)c2cc(C)cc(C)c2)n(Cc2cccc(C#N)c2)c(=O)[nH]c1=O [Example 47, 1-(3-Cyanobenzyl)-5-ethyl-6-(3,5-dimethylbenzoyl)-2,4-pyrimidinedione]",206 to 207,–,2.53,0.003
"CCc1c(Oc2cc(C)cc(C)c2)n(Cc2cc(Br)cc(Br)c2)c(=O)[nH]c1=O [Example 87, 1-(3,5-Dibromobenzyl)-5-ethyl-6-(3,5-dimethylphenoxy)-2,4-pyrimidinedione]",210 to 211,–,>100.00,2.05
"Cc1cc(C)cc(Oc2c(C(C)C)c(=O)[nH]c(=O)n2Cc2ccc(OC(F)(F)F)cc2)c1 [Example 34, 1-(4-Trifluoromethoxybenzyl)-5-isopropyl-6-(3,5-dimethylphenoxy)-2,4-pyrimidinedione]",173 to 175,0.045,8.06,–
"Cc1cc(C)cc(Oc2c(C(C)C)c(=O)[nH]c(=O)n2Cc2cccc(C#N)c2)c1 [Example 46, 1-(3-Cyanobenzyl)-5-isopropyl-6-(3,5-dimethylphenoxy)-2,4-pyrimidinedione]",160 to 162,–,9.20,0.023
"CCc1c(Sc2cc(C)cc(C)c2)n(Cc2nc3ccccc3o2)c(=O)[nH]c1=O [Example 145, 1-(Benzoxazol-2-ylmethyl)-5-ethyl-6-(3,5-dimethylphenyl)thio-2,4-pyrimidinedione]",104 to 106,–,>100.00,3.04
"CCC(=O)Cn1c(C(=O)c2cc(C)cc(C)c2)c(C(C)C)c(=O)[nH]c1=O [Example 164, 1-(2-Butanon-1-yl)-5-isopropyl-6-(3,5-dimethylbenzoyl)-2,4-pyrimidinedione]",174 to 176,–,20.58,0.0026
"CC(=O)Cn1c(Oc2cc(C)cc(C)c2)c(C(C)C)c(=O)[nH]c1=O [Example 158, 1-(Acetonyl)-5-isopropyl-6-(3,5-dimethylphenoxy)-2,4-pyrimidinedione]",181 to 183,–,>100.00,0.0043
"Cc1cc(C)cc(C(=O)c2c(C(C)C)c(=O)[nH]c(=O)n2Cc2cc(F)ccc2F)c1 [Example 72, 1-(2,5-Difluorobenzyl)-5-isopropyl-6-(3,5-dimethylbenzoyl)-2,4-pyrimidinedione]",205 to 207,0.003,5.26,–
"CCc1c(Sc2cc(C)cc(C)c2)n(Cc2ccc3ccccc3n2)c(=O)[nH]c1=O [Example 131, 1-(Quinolin-2-ylmethyl)-5-ethyl-6-(3,5-dimethylphenyl)-thio-2,4-pyrimidinedione]",107 to 110,> 10.6,10.60,–
"CCc1c(C(=O)c2cc(C)cc(C)c2)n(Cc2occc2C(=O)OC)c(=O)[nH]c1=O [Example 155, 1-(3-Methoxycarbonyl-2-furanylmethyl)-5-ethyl-6-(3,5-dimethyl-benzoyl)-2,4-pyrimidinedione]",204 to 206,0.017,13.45,–
"COC(=O)c1ccoc1Cn1c(C(=O)c2cc(C)cc(C)c2)c(C(C)C)c(=O)[nH]c1=O [Example 156, 1-(3-Methoxycarbonyl-2-furanylmethyl)-5-isopropyl-6-(3,5-dimethyl-benzoyl)-2,4-pyrimidinedione]",180 to 183,0.014,10.92,–
"Cc1cc(C)cc(Oc2c(C(C)C)c(=O)[nH]c(=O)n2Cc2cc(F)ccc2F)c1 [Example 70, 1-(2,5-Difluorobenzyl)-5-isopropyl-6-(3,5-dimethylphenoxy)-2,4-pyrimidinedione]",214 to 216,0.014,>100.00,–
"COc1cccc(Cn2c(C(=O)c3cc(C)cc(C)c3)c(C(C)C)c(=O)[nH]c2=O)c1 [Example 30, 1-(3-Methoxybenzyl)-5-isopropyl-6-(3,5-dimethylbenzoyl)-2,4-pyrimidinedione]",184 to 186,0.002,3.83,–
"Cc1cc(C)cc(Sc2c(C(C)C)c(=O)[nH]c(=O)n2Cc2c3ccccc3cc3ccccc23)c1 [Example 98, 1-(Anthracen-9-ylmethyl)-5-isopropyl-6-(3,5-dimethylphenyl)thio-2,4-pyrimidinedione]",129 to 131,–,1.75,> 1.75
"Cc1cc(C)cc(Oc2c(C(C)C)c(=O)[nH]c(=O)n2Cc2cccc(Cl)n2)c1 [Example 124, 1-(2-Chloropyridin-6-ylmethyl)-5-isopropyl-6-(3,5-dimethylphenoxy)-2,4-pyrimidinedione]",223 to 225,0.082,>100.00,–
"CCc1c(Oc2cc(C)cc(C)c2)n(Cc2cccc(OC)c2)c(=O)[nH]c1=O [Example 27, 1-(3-Methoxybenzyl)-5-ethyl-6-(3,5-dimethylphenoxy)-2,4-pyrimidinedione]",133 to 135,0.014,10.68,–
"CCc1c(C(=O)c2cc(C)cc(C)c2)n(Cc2cccnc2)c(=O)[nH]c1=O [Example 119, 1-(Pyridin-3-ylmethyl)-5-ethyl-6-(3,5-dimethylbenzoyl)-2,4-pyrimidinedione]",170 to 172,–,39.00,0.0038
"CCc1c(C(=O)c2cc(C)cc(C)c2)n(Cc2cccc(OC)c2)c(=O)[nH]c1=O [Example 29, 1-(3-Methoxybenzyl)-5-ethyl-6-(3,5-dimethylbenzoyl)-2,4-pyrimidinedione]",185 to 187,0.003,7.22,–
"CCc1c(Sc2cc(C)cc(C)c2)n(Cc2cc(Br)cc(Br)c2)c(=O)[nH]c1=O [Example 85, 1-(3,5-Dibromobenzyl)-5-ethyl-6-(3,5-dimethylphenyl)thio-2,4-pyrimidinedione]",214 to 215,–,13.17,0.13
"COC(=O)c1ccoc1Cn1c(Sc2cc(C)cc(C)c2)c(C(C)C)c(=O)[nH]c1=O [Example 152, 1-(3-Methoxycarbonyl-2-furanylmethyl)-5-isopropyl-6-(3,5-dimethylphenyl)thio-2,4-pyrimidinedione]",135 to 137,0.018,9.61,–
"Cc1cc(C)cc(C(=O)c2c(C(C)C)c(=O)[nH]c(=O)n2Cc2ccccc2C#N)c1 [Example 42, 1-(2-Cyanobenzyl)-5-isopropyl-6-(3,5-dimethylbenzoyl)-2,4-pyrimidinedione]",250 to 253,0.005,>100.00,–
"Cc1cc(C)cc(C(=O)c2c(C(C)C)c(=O)[nH]c(=O)n2Cc2ccc3ccccc3n2)c1 [Example 136, 1-(Quinolin-2-ylmethyl)-5-isopropyl-6-(3,5-dimethyl-benzoyl)-2,4-pyrimidinedione]",152 to 154,0.0097,8.70,–
"Cc1cc(C)cc(Oc2c(C(C)C)c(=O)[nH]c(=O)n2Cc2ccc3c(c2)C(=O)c2ccccc2C3=O)c1 [Example 106, 1-(Anthraquinon-2-ylmethyl)-5-isopropyl-6-(3,5-dimethylphenoxy)-2,4-pyrimidinedione]",246 to 248,0.49,9.49,–
"Cc1cc(C)cc(C(=O)c2c(C(C)C)c(=O)[nH]c(=O)n2Cc2cc(Br)cc(Br)c2)c1 [Example 90, 1-(3,5-Dibromobenzyl)-5-isopropyl-6-(3,5-dimethylbenzoyl)-2,4-pyrimidinedione]",223 to 225,–,8.90,0.12
"Cc1cc(C)cc(Oc2c(C(C)C)c(=O)[nH]c(=O)n2Cc2cc(Br)cc(Br)c2)c1 [Example 88, 1-(3,5-Dibromobenzyl)-5-isopropyl-6-(3,5-dimethylphenoxy)-2,4-pyrimidinedione]",244 to 246,–,>100.00,0.42
"CCc1c(Sc2cc(C)cc(C)c2)n(Cc2cc(OC)cc(OC)c2)c(=O)[nH]c1=O [Example 55, 1-(3,5-Dimethoxybenzyl)-5-ethyl-6-(3,5-dimethylphenyl)thio-2,4-pyrimidinedione]",181 to 183,0.071,10.8,–
"Cc1cc(C)cc(Oc2c(C(C)C)c(=O)[nH]c(=O)n2Cn2nnc3ccccc32)c1 [Example 142, 1-(1H-benzotriazol-1-ylmethyl)-5-isopropyl-6-(3,5-dimethylphenoxy)-2,4-pyrimidinedione]",278 to 279,0.044,>100.00,–
